Measurements from patent US6713276B2, “Modulation of Aβ levels by β-secretase BACE2” (Scios, Inc., priority 2000, dated 2004).

Legend:
[1] = system: APP751sw; assay: cell-free β-secretase assay, β-NTF ELISA, APP751sw substrate; type: biochemical, human; conditions: membrane extracts of transfected HEK293 cells, pH 4.5, 37° C.
Experimental: The β-secretase assay consists of two different parts, an incubation or reaction phase to generate β-NTF and an ELISA part to capture and measure the β-NTF generated by β-secretase. The β-secretase ELISA was performed as follows. Each well of a 96 well plate containing a flat bottom (high protein binding, Corning, N.Y.) was coated with 100 μl of the monoclonal capture antibody 8E5 (at ˜8-10 μg/ml) (Johnson-Wood et al. Proc. Natl. Acad. Sci. USA 94: 1550-1555 [1997]). The plate was then covered with parafilm and incubated overnight at 4° C. or alternatively for 2 hours at 37° C. […]
One hundred μl of a 1:5000 dilution of a goat anti rabbit IgG-HRP in Antibody-Conjugate Buffer was then added to each well, and the plate incubated at room temperature for one hour. […] After sufficient blue color had developed, the reactions were stopped by adding 100 μl of 5N H2SO4 to each well, and the amount of βNTF was determined by reading the plate at 450 nm in a Softmax spectrophotometer.
Equal amounts of membrane extracts from either mock, BACE or BACE2 transfected HEK293 cells were incubated with partially purified full length APP751 sw or APP751wt for the indicated times. The formation of β-NTF was then determined using the respective β-NTF specific ELISA as described in General Methodology.

[2] = system: APP751sw processing in HEK293T cells; assay: co-transfection with APP751sw in HEK293T cells, ELISA of conditioned medium; type: cell-based, human; conditions: co-transfected with APP751sw
Experimental: (§1) Expression vectors containing BACE and BACE2 cDNAs were transfected into HEK293T cells in the presence of APP751sw or CT100 (Shoji et al., Science 258: 126-129 [1992]; Lichtenthaler et al., Proc. Natl. Acad. Sci. USA 96: 3053-3058 [1999]). Transfections were performed in 24 well plates using Lipofectamine Plus (Gibco/BRL, Bethesda, Md.) and DNA concentrations were kept constant by including non-specific DNA. Expression plasmids were tested for BACE and BACE2 expression by Western blotting. Cell culture supernatants were collected 48 hours and 72 hours post-transfection, and assayed for α-NTF, β-NTF and Aβ formation. β-NTF measurement was performed as described below. α-NTF was captured like β-NTF but was detected with biotinylated 2H3 (Johnson-Wood et al., Proc. Nati. Acad. Sci. USA 94: 1550-1555 [1997]). Aβ levels were determined by an ELISA using monoclonal antibodies 266 for capture and biotinylated 3D6 for detection (see Johnson-Wood et al., [1997] ibid for antibody epitope description). Aβ42, in contrast, was captured using 21F 12 and detected with biotinylated 3D6. Cell extracts prepared 72 hour post-transfection were separated by SDS-PAGE (Novex) and probed with CT695 (Zymed) for APP and CTFs as well as with an Aβ specific monoclonal antibody WO2 (kindly provided by K. Beyreuther; Ida et al., J. Biol. Chem. 271: 22908-22914 [1996]). […]
Given the ability of BACE2 to cleave APP at the β-secretase site in vitro, we investigated the role of BACE2 in HEK293T cells relative to BACE. […] Cell supernatants were collected 48 hours or 72 hours post-transfection and analyzed for α-NTF, β-NTF, total Aβ and Aβ42 as described in Genenral Methodology. […]
In an independent experiment, we addressed whether BACE2 competed with the ability of BACE to cleave APP at the β-secretase site. HEK293T cells were co-transfected with constant amounts of APP751sw and BACE, and increasing levels of BACE2. β-NTF and Aβ levels were then measured in culture supernatant (FIG. 3). […]

[3] = system: APP751sw processing in HEK293T cells; assay: pulse-chase / pulse-labeling and immunoprecipitation of APP CTFs, Aβ and p3 in HEK293T cells; type: cell-based, human; conditions: HEK293T, APP751sw, 15 min pulse, chase up to 90 minutes
Experimental: Forty eight hours post-transfection, HEK293T cells were labeled for 15 minutes with 200 μCi Promix L [^35S] in vitro cell labeling mix (Amersham) and chased for up to 90 minutes according to standard procedures. APP CTFs were immunoprecipitated with antibodies 369 (Cai et al., Science 259: 514-516 [1993]). For immunoprecipitations of Aβ and p3 from conditioned medium, HEK293T cells were labeled for 5 hours with 300 μCi Promix L [^35S] in vitro cell labeling mix (Amersham) 48 hours post-transfection. Aβ40 and Aβ42 as well as the corresponding p3 species were immunoprecipitated with monoclonal antibodies 1702.1 and 108.1, respectively (Higaki et al., J. Med. Chem. 42: 3889-3898 [1999]).
To analyze the metabolism of APP as a consequence of BACE or BACE2 overexpression we performed a parallel pulse-chase experiment (FIG. 2e). HEK293T cells transfected as above were pulse-labeled and chased for up to 90 minutes and APP and CTFs were immunoprecipitated. […] An alternative β-secretase related cleavage product (β′-CTF) was also formed consistent with previous reports (Vassar et al., Science [1999] ibid; Higaki et al., Neuron 14: 651-659 [1995]). Consistent with its β-secretase activity, BACE2 overexpression led to a significant initial increase in β-CTF levels compared to mock-transfected cells. […] To determine whether BACE affected γ-secretase activity, we determined whether p3 could be formed. […]

[4] = system: APP751sw processing in SK-N-MC cells; assay: co-transfection with APP751sw in SK-N-MC neuroblastoma cells, ELISA of conditioned medium; type: cell-based, human; conditions: co-transfected with APP751sw
Experimental: as §1, with “3D6.” for “3D6. Cell extracts prepared 72 hour post-transfection were separated by SDS-PAGE (Novex) and probed with CT695 (Zymed) for APP and CTFs as well as with an Aβ specific monoclonal antibody WO2 (kindly provided by K. Beyreuther; Ida et al., J. Biol. Chem. 271: 22908-22914 [1996]).”
We further assessed the modulatory effect of BACE2 on Aβ formation using a human neuroblastoma cell line, SK-N-MC.

[5] = system: CT100 (C-terminal 100 amino acids of APP) processing in HEK293T cells; assay: co-transfection with CT100 in HEK293T cells, ELISA, Western blot, pulse-chase; type: cell-based, human; conditions: HEK293T, co-transfected with CT100
Experimental: as §1, with “3D6.” for “3D6. Cell extracts prepared 72 hour post-transfection were separated by SDS-PAGE (Novex) and probed with CT695 (Zymed) for APP and CTFs as well as with an Aβ specific monoclonal antibody WO2 (kindly provided by K. Beyreuther; Ida et al., J. Biol. Chem. 271: 22908-22914 [1996]).”
This effect prompted investigation into whether β-secretase cleavage was required for Aβ suppression. The effects of BACE2 on the metabolism of the C-terminal 100 amino acids of APP (CT100), a construct that mimics prior β-secretase cleavage (Shoji et al., Science 258: 126-129 [1992]), was analyzed. […]

BACE: β-site APP-cleaving enzyme, membrane-bound aspartyl protease, cloned from human brain cDNAs and overexpressed
β-NTF formation (β-secretase cleavage in vitro) [1]: time-dependent increase in β-NTF formation
total Aβ in conditioned medium [2]: Aβ production was not significantly stimulated
α-NTF levels in conditioned medium [2]: α-NTF levels were proportionally reduced
total OD of α-NTF plus β-NTF ([2]; APP751sw alone ~2.59): ~2.3 OD
APP CTF turnover (β-CTF, β′-CTF, α-CTF) [3]: accumulation of β-CTF
Aβ in conditioned medium [4]: very pronounced increase in both β-NTF and Aβ
β-NTF in conditioned medium [4]: very pronounced increase in both β-NTF and Aβ
total Aβ and Aβ42 levels in conditioned medium [5]: did not affect the levels of Aβ
